From publication PMC3310380 (Journal of Biomolecular Screening, 2010) come the findings set out here.

The test system of series [1] is EBV genome copy number in Raji Burkitt lymphoma cells. Put plainly: EBV genome maintenance assay in Raji cells. Type of series: cell-based, Epstein-Barr virus. Conditions: six days, 50 μM.
For a further series, the target named is EBNA1 DBD (Epstein-Barr virus, UniProt P03211 459-607). Briefly: EMSA. On the technique in general: A gel shift assay detects complexes by their altered migration in electrophoresis.
Sequence of EBNA1 DBD (P03211 459-607): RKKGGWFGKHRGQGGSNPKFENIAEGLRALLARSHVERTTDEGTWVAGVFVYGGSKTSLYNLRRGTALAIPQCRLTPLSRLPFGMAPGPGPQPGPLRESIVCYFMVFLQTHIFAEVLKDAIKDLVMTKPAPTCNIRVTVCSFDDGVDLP

`NC(=O)NO` [HU, hydroxyurea]: the “EBV DNA copy number, of its original content relative to cellular actin” value in series [1] is ~ 48%.

B1: Probe A (dsDNA)
DNA 1: GGGTAGCATATGCTACCC
DNA 2: GGGTAGCATATGCTACCC
Turning to B1, the binding result in the series with EBNA1 DBD is listed as “binds”.
